B1: MOR00208: anti-CD19 antibody; heavy chain SEQ ID NO: 14, light chain SEQ ID NO: 15 (antibody)
heavy: EVQLVESGGGLVKPGGSLKLSCAASGYTFTSYVMHWVRQAPGKGLEWIGYINPYNDGTKYNEKFQGRVTISSDKSISTAYMELSSLRSEDTAMYYCARGTYYYGTRVFDYWGQGTLVTVSSASTKGPSVFPLAPSSKSTSGGTAALGCLVKDYFPEPVTVSWNSGALTSGVHTFPAVLQSSGLYSLSSVVTVPSSSLGTQTYICNVNHKPSNTKVDKKVEPKSCDKTHTCPPCPAPELLGGPDVFLFPPKPKDTLMISRTPEVTCVVVDVSHEDPEVQFNWYVDGVEVHNAKTKPREEQFNSTFRVVSVLTVVHQDWLNGKEYKCKVSNKALPAPEEKTISKTKGQPREPQVYTLPPSREEMTKNQVSLTCLVKGFYPSDIAVEWESNGQPENNYKTTPPMLDSDGSFFLYSKLTVDKSRWQQGNVFSCSVMHEALHNHYTQKSLSLSPGK
light: DIVMTQSPATLSLSPGERATLSCRSSKSLQNVNGNTYLYWFQQKPGQSPQLLIYRMSNLNSGVPDRFSGSGSGTEFTLTISSLEPEDFAVYYCMQHLEYPITFGAGTKLEIKRTVAAPSVFIFPPSDEQLKSGTASVVCLLNNFYPREAKVQWKVDNALQSGNSQESVTEQDSKDSTYSLSSTLTLSKADYEKHKVYACEVTHQGLSSPVTKSFNRGEC

Tested on: MEC-1 cells
Experiment: ADCC target cell killing of MEC-1 cells by NK cells (FACS, DAPI positive dead target cells), MOR00208 and Ibrutinib alone and in combination
Format: cell-based
Procedure: Cell lines tested: MEC-1 cells (DSMZ # ACC497). Cell lines are tested: chronic B-cell leukemia cell line; JVM-2 (ATCC® CRL-3002) a mantle cell lymphoma cell line; Ramos cells (ATCC number CRL-1596), a human Burkitt's lymphoma cells; HG-3 (DSMZ # ACC765), and CII (DSMZ # ACC773) are a chronic lymphocytic leukemia cell line; Su-DHL 6 (DSMZ # ACC572), U2932 (DSMZ # ACC633) and OCI-LY7 (DSMZ # ACC688) are a Diffuse large B-cell lymphoma (DLBCL) cell line; JVM-2 (ATCC® CRL-3002) is a mantle cell lymphoma cell line; and BALL-1 (DSMZ # ACC742) is an acute lymphoblastic leukemia cell line.
The cytotoxicity of MOR00208 and Ibrutinib alone and in combination were tested in the MEC-1 cell line (CLL). The cytotoxicity of MOR00208 and Ibrutinib alone and in combination are tested in the following target cell lines: JVM-2, Ramos, HG-3, CII, Su-DHL 6, U2932, OCI-LY7, JVM-2 and BALL-1.
Ibrutinib is a covalent inhibitor of Bruton's tyrosine kinase and should abrogate proliferation in target cell lines. MOR00208 targets CD19 and mediates target cell killing via ADCC. Target cell killing is measured using the following parameters: Ibrutinib at a concentration range of between 0.033 and 33 μM, specifically at 0.3 μM, 1.0 μM and 3.0 μM; MOR00208 at a concentration range from 0.001-10 nM, specifically at 0.01 nM, 0.1 nM, and 10 nM, and the combination of MOR00208 and Ibrutinib. The following are used as controls: RefmAb33 or NK cells alone. In the Ibrutinib group as well as in the MOR00208+Ibrutinib combination group, target cells are pre-treated with Ibrutinib for 7 days prior to the ADCC assay measurements. The target cells are counted and stained using 1 μg/ml CFSE end concentration. For DMSO treated target cells, an effector: target (E:T) ratio of 2:1 is chosen, corresponding to a cell density of 5×10^5/ml. The proliferative effect on target cells caused by Ibrutinib treatment was included by adjusting the E:T ratio in inhibitor treated cells. The NK cells are counted and adjusted to 1×10^6/ml. The target cell killing assays were performed as follows: using 96 well plates, 100 μl of target cell suspension was added per well, followed by 100 μl cell suspension of NK cells to each well resulting in an E:T ratio of 2:1. The antibodies were diluted in a range of 10-0.001 nM in medium. Cells were centrifuged and target: effector cell-pellets were re-suspended in 100 μl antibody-containing medium or the according control solution. The assay was incubated for 4 h in CO2-incubator at 37° C. After 10 min incubation on ice, 50 μl DAPI solution was added to each well (final concentration 1 μg/ml) and incubated on ice for 10 min. The cell killing measurements were performed with FACS-Verse. Dead target cells were DAPI positive.
In total, three experiments were performed in order to determine the mediation of ADCC on MEC-1 cells by the combination of MOR00208 and Ibrutinib.
The raw data (% dead cells) are analyzed as follows: 1) from the raw data (% dead cells), the background (controls) are subtracted, resulting in the specific killing for each treatment group; then 2) the specific killing values are normalized by setting the combination of MOR00208+Ibrutinib to 1.
Combination Index (CI) calculations are completed in order to determine synergy of the combination of the exemplified anti-CD19 antibody and Ibrutinib as compared to MOR00208 and Ibrutinib alone. Such calculations are described in Ting-Chao Chou, Theoretical Basis, Experimental Design, and Computerized Simulation of Synergism and Antagonism in Drug Combination Studies, Pharmacol Rev 58:621-681 (2006), which is incorporated by reference in its entirety and Chou T C, Talalay P, Quantitative analysis of dose-effect relationships: the combined effects of multiple drugs or enzyme inhibitors. Adv Enzyme Regul 22: 27-55 (1984), which is incorporated by reference in its entirety. The methods of Chou-Talalay are carried out using the CI-isobol method. […]

[1] = Experiment 1, Ibrutinib at 0.3 μM, MOR00208 0.01 nM, control (0.1% DMSO/Ref33) 25.27
[2] = Experiment 1, Ibrutinib at 0.3 μM, MOR00208 0.1 nM, control (0.1% DMSO/Ref33) 25.27
[3] = Experiment 1, Ibrutinib at 0.3 μM, MOR00208 10 nM, control (0.1% DMSO/Ref33) 25.27
[4] = Experiment 1, Ibrutinib at 1 μM, MOR00208 0.01 nM, control (0.1% DMSO/Ref33) 25.27
[5] = Experiment 1, Ibrutinib at 1 μM, MOR00208 0.1 nM, control (0.1% DMSO/Ref33) 25.27
[6] = Experiment 1, Ibrutinib at 1 μM, MOR00208 10 nM, control (0.1% DMSO/Ref33) 25.27
[7] = Experiment 1, Ibrutinib at 3 μM, MOR00208 0.01 nM, control (0.1% DMSO/Ref33) 25.27
[8] = Experiment 1, Ibrutinib at 3 μM, MOR00208 0.1 nM, control (0.1% DMSO/Ref33) 25.27
[9] = Experiment 1, Ibrutinib at 3 μM, MOR00208 10 nM, control (0.1% DMSO/Ref33) 25.27
[10] = Experiment 2, Ibrutinib at 0.3 μM, MOR00208 0.01 nM, control (0.03% DMSO/Ref33) 9.81
[11] = Experiment 2, Ibrutinib at 0.3 μM, MOR00208 0.1 nM, control (0.03% DMSO/Ref33) 9.81
[12] = Experiment 2, Ibrutinib at 0.3 μM, MOR00208 10 nM, control (0.03% DMSO/Ref33) 9.81
[13] = Experiment 2, Ibrutinib at 1 μM, MOR00208 0.01 nM, control (0.03% DMSO/Ref33) 9.81
[14] = Experiment 2, Ibrutinib at 1 μM, MOR00208 0.1 nM, control (0.03% DMSO/Ref33) 9.81
[15] = Experiment 2, Ibrutinib at 1 μM, MOR00208 10 nM, control (0.03% DMSO/Ref33) 9.81
[16] = Experiment 2, Ibrutinib at 3 μM, MOR00208 0.01 nM, control (0.03% DMSO/Ref33) 9.81
[17] = Experiment 2, Ibrutinib at 3 μM, MOR00208 0.1 nM, control (0.03% DMSO/Ref33) 9.81
[18] = Experiment 2, Ibrutinib at 3 μM, MOR00208 10 nM, control (0.03% DMSO/Ref33) 9.81
[19] = Experiment 3, Ibrutinib at 0.3 μM, MOR00208 0.01 nM, control (0.03% DMSO/Ref33) 16.40
[20] = Experiment 3, Ibrutinib at 0.3 μM, MOR00208 0.1 nM, control (0.03% DMSO/Ref33) 16.40
[21] = Experiment 3, Ibrutinib at 0.3 μM, MOR00208 10 nM, control (0.03% DMSO/Ref33) 16.40
[22] = Experiment 3, Ibrutinib at 1 μM, MOR00208 0.01 nM, control (0.03% DMSO/Ref33) 16.40
[23] = Experiment 3, Ibrutinib at 1 μM, MOR00208 0.1 nM, control (0.03% DMSO/Ref33) 16.40
[24] = Experiment 3, Ibrutinib at 1 μM, MOR00208 10 nM, control (0.03% DMSO/Ref33) 16.40
[25] = Experiment 3, Ibrutinib at 3 μM, MOR00208 0.01 nM, control (0.03% DMSO/Ref33) 16.40
[26] = Experiment 3, Ibrutinib at 3 μM, MOR00208 0.1 nM, control (0.03% DMSO/Ref33) 16.40
[27] = Experiment 3, Ibrutinib at 3 μM, MOR00208 10 nM, control (0.03% DMSO/Ref33) 16.40

Molecule	percent (%) dead cells (raw data) [1] [%]	percent (%) dead cells (raw data) [2] [%]	percent (%) dead cells (raw data) [3] [%]	percent (%) dead cells (raw data) [4] [%]	percent (%) dead cells (raw data) [5] [%]	percent (%) dead cells (raw data) [6] [%]	percent (%) dead cells (raw data) [7] [%]	percent (%) dead cells (raw data) [8] [%]	percent (%) dead cells (raw data) [9] [%]	percent (%) dead cells (raw data) [10] [%]	percent (%) dead cells (raw data) [11] [%]	percent (%) dead cells (raw data) [12] [%]	percent (%) dead cells (raw data) [13] [%]	percent (%) dead cells (raw data) [14] [%]	percent (%) dead cells (raw data) [15] [%]	percent (%) dead cells (raw data) [16] [%]	percent (%) dead cells (raw data) [17] [%]	percent (%) dead cells (raw data) [18] [%]	percent (%) dead cells (raw data) [19] [%]	percent (%) dead cells (raw data) [20] [%]	other results
C=CC(=O)N1CCC[C@@H](n2nc(-c3ccc(Oc4ccccc4)cc3)c3c(N)ncnc32)C1 [Ibrutinib, 1-[(3R)-3-[4-amino-3-(4-phenoxyphenyl)-1H-pyrazolo[3,4-d]pyrimidin-1-yl]-1-piperidinyl]-2-propen-1-one]	21.99	21.99	21.99	24.33	24.33	24.33	17.07	17.07	17.07	8.56	8.56	8.56	8.39	8.39	8.39	10.84	10.84	10.84	8.56	8.56	percent (%) dead cells (raw data) [21]: 8.56%; percent (%) dead cells (raw data) [22]: 7.50%; percent (%) dead cells (raw data) [23]: 7.50%; percent (%) dead cells (raw data) [24]: 7.50%; percent (%) dead cells (raw data) [25]: 8.26%; percent (%) dead cells (raw data) [26]: 8.26%; percent (%) dead cells (raw data) [27]: 8.26%
B1	56.54	72.31	73.77	56.54	72.31	73.77	56.54	72.31	73.77	37.57	52.10	50.83	37.57	52.10	50.83	37.57	52.10	50.83	63.68	81.30	percent (%) dead cells (raw data) [21]: 81.41%; percent (%) dead cells (raw data) [22]: 63.68%; percent (%) dead cells (raw data) [23]: 81.30%; percent (%) dead cells (raw data) [24]: 81.41%; percent (%) dead cells (raw data) [25]: 63.68%; percent (%) dead cells (raw data) [26]: 81.30%; percent (%) dead cells (raw data) [27]: 81.41%

Reference: patent US10617691B2, “Combination of an anti-CD19 antibody and a Bruton's tyrosine kinase inhibitor and uses thereof” (MORPHOSYS AG, priority 2015, dated 2020)
